Assay results as given in patent US20250042861A1, “TETRAHYDROPYRIDAZINES, COMPOSITIONS COMPRISING THEM AND USES THEREOF” (Novo Nordisk A/S, priority 2021, published 2025).
pEC50: −log10 of the molar value.

How the values were obtained:
human CB1 receptor [1] = molecular target: T1, human CB1 receptor (Homo sapiens, UniProt P21554); experiment: bioSensAll β-arrestin plasma membrane (PM) translocation BRET biosensor (+GRK2) assay in transfected HEK293 cells, inhibition of CP-55,940 response; format: cell-based; conditions: HEK293 cells transfected with hCB1 and β-arrestin PM translocation biosensor (+GRK2), test compound then EC75 of CP-55,940 (100 nM), overnight incubation, read-out: CB1 wt βarr2 EC50
T1 construct: expressed in transfected cells; host or cells: HEK293
Experimental: (§1) Using polyethylenimine (PEI) transfection agent, HEK293 cells were transfected in suspension with the human CB1 or CB1 b receptor and one of the following bioSensAll® assays: GAPL-Gi2, or β-arrestin plasma membrane (PM) translocation biosensor (+GRK2). Cells were directly seeded in 96-well plates immediately following transfection.
(§2) Cells were incubated with coelenterazine (luciferase substrate) and different test compounds prior to the measurement of BRET signals.
(§3) Used in this project are i) Ga plasma membrane (GAPL) biosensors and the ii) β-arrestin plasma membrane translocation biosensor. • i) GAPL sensors are used to monitor the activation of heterotrimeric G proteins at the plasma membrane upon receptor stimulation. Specifically, these multimolecular BRET sensors detect the plasma membrane recruitment of proteins that interact with active Ga subunits in a G protein family-selective manner. G protein activation following receptor stimulation generally leads to an increase in the BRET signal. • ii) The multimolecular β-arrestin membrane recruitment biosensors allow for real-time spatio-temporal monitoring of β-arrestin 1 and β-arrestin 2 following GPCR activation. Specifically, these β-arrestin sensors were designed to detect the recruitment of proteins to the plasma membrane β-arrestin PM) with localization to compartment resulting in an increased BRET signal. c) Cell Culture Conditions HEK293 cells were maintained in Dulbecco's Modified Eagle Medium (DMEM) (Wisent; cat #319-030-CL: without sodium pyruvate, with 4.5 g/L glucose, without L-glutamine) supplemented with 1% penicillin-streptomycin (Wisent; cat #450-201-EL) and 2 or 10% fetal bovine serum (Wisent cat #090150).
(§4) HEK293 cells were co-transfected with hCB1 or hCB1b and one of the above-listed bioSensAll® assays. For each transfection condition: • the total amount of transfected DNA was kept constant at 1 μg per mL of cell culture to be transfected; whenever necessary, salmon sperm DNA (Invitrogen, cat #15632011) was used as ‘carrier’ DNA to supplement plasmid DNA (i.e., biosensor and receptor); • the PEI (polyethylenimine 25 kDa linear, PolyScience, cat #23966) to DNA ratio (ug:ug) was fixed at 3:1. Transfections were Carried Out as Follows: • DNA and PEI were first diluted separately in 150 mM NaCl. The volume of the diluent in each tube corresponds to 5% of the cell culture volume to be transfected. • Once DNA and PEI were diluted, the PEI-containing solution was added to the DNA solution and the DNA/PEI mixture immediately vortexed for 5 seconds. • The DNA/PEI mixture was incubated for at least 20 minutes at room temperature to allow for the formation of DNA/PEI complexes. • During the incubation, HEK293 cells were detached, counted and re-suspended in culture medium (composition specified above). • At the end of the incubation period, the DNA/PEI mixture was added to the cells. • Cells were finally distributed in 96-well plates (White Opaque 96-well/Microplates, Greiner, cat #655083 or CulturPlate-96, White Opaque 96-well Microplate, PerkinElmer, cat #6005688) at a density of 30 000 cells per well.
(§5) • Using 450-Select TS Biotek plate washer, culture medium was aspirated and replaced with 100 μl of Hank's Balanced Salt Solution buffer (HBSS) (Wisent, cat #319-067CL: without red phenol; with sodium bicarbonate, with calcium and magnesium, with HEPES) per well. This process was performed a total of two times (i.e., 2 washes). • After the washing step, the HP D300 digital dispenser (Tecan) was used to inject increasing doses (12) of test compounds (ranging from 0-600 nM) to wells. […]

human CB1 receptor [2] = molecular target: T1, human CB1 receptor; experiment: bioSensAll GAPL-Gi2 BRET biosensor assay in transfected HEK293 cells, inhibition of CP-55,940 response; format: cell-based; conditions: HEK293 cells transfected with hCB1 and GAPL-Gi2 biosensor, test compound then EC75 of CP-55,940 (0.1 nM), overnight incubation, read-out: CB1 wt Gi2 EC50
Experimental: as §1, §2, §3, §4, §5

T1 sequence (P21554 whole entry): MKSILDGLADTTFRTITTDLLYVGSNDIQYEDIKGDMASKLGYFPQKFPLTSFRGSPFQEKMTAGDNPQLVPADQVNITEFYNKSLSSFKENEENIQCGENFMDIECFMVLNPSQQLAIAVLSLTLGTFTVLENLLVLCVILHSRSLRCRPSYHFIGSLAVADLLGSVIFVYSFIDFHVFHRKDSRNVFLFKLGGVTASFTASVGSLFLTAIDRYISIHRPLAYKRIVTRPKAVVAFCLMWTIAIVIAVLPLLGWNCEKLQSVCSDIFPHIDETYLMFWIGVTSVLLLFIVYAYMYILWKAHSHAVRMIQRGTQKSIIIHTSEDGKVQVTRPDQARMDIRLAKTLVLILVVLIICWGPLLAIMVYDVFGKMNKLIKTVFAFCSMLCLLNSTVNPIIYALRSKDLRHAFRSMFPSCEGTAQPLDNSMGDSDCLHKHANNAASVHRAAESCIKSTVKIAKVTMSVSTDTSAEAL

Row | pEC50 (human CB1 receptor [1]) | pEC50 (human CB1 receptor [2]) | SMILES
1 | 6.40 | 6.82 | CC(=O)N/C(N)=N/C(=N/S(=O)(=O)N1CCCC(F)(F)C1)N1CCC(c2ccccc2)C(c2ccc(Cl)cc2)=N1 (single isomer, unassigned) [Compound 5 Isomer 1, N-[(E)-N′-[(Z)-C-[6-(4-chlorophenyl)-5-phenyl-4,5-dihydro-3H-pyridazin-2-yl]-N-[(3,3-difluoro-1-piperidyl)sulfonyl]carbonimidoyl]carbamimidoyl]acetamide]
2 | < 4.52 | < 4.52 | CC(=O)NC(=N)/N=C(/NS(=O)(=O)c1ccc(C(F)(F)F)cn1)N1CCC(c2ccccc2)C(c2ccc(Cl)cc2)=N1 (single isomer, unassigned) [Compound 8 Isomer 1, N-[(NE)-N-[[6-(4-chlorophenyl)-5-phenyl-4,5-dihydro-3H-pyridazin-2-yl]-[[5-(trifluoromethyl)-2-pyridyl]sulfonylamino]methylene]carbamimidoyl]acetamide]
3 | 8.85 | 9.17 | CC(=O)N/C(N)=N/C(=N/S(=O)(=O)N1CCC(F)(F)CC1)N1CCC(c2ccccc2)C(c2ccc(Cl)cc2)=N1 (single isomer, unassigned) [Compound 4 Isomer 2, N-[(E)-N′-[(Z)-C-[6-(4-chlorophenyl)-5-phenyl-4,5-dihydro-3H-pyridazin-2-yl]-N-[(4,4-difluoro-1-piperidyl)sulfonyl]carbonimidoyl]carbamimidoyl]acetamide]
4 | 8.68 | 9.38 | CC(=O)N/C(N)=N\C(=N\S(=O)(=O)c1ccc(C(F)(F)F)cc1)N1CCC(c2ccccc2)C(c2ccc(Cl)cc2)=N1 (single isomer, unassigned) [Compound 7 Isomer 2, N-[(E)-N′-[(Z)-C-[6-(4-chlorophenyl)-5-phenyl-4,5-dihydro-3H-pyridazin-2-yl]-N-[4-(trifluoromethyl)phenyl]sulfonyl-carbonimidoyl]carbamimidoyl]acetamide]
5 | 8.48 | 8.92 | CC(=O)NC(N)=NC(=NS(=O)(=O)c1ccc(Cl)cc1)N1CCC(c2ccccc2)C(c2ccc(Cl)cc2)=N1 (single isomer, unassigned) [Compound 1 Isomer 2, N-[(E)-N′-[(Z)-C-[6-(4-chlorophenyl)-5-phenyl-4,5-dihydro-3H-pyridazin-2-yl]-N-(4-chlorophenyl)sulfonylcarbonimidoyl]carbamimidoyl]acetamide]
6 | 9.14 | 9.37 | CC(=O)N/C(N)=N/C(=N/S(=O)(=O)N1CCCC(F)(F)C1)N1CCC(c2ccccc2)C(c2ccc(Cl)cc2)=N1 (single isomer, unassigned) [Compound 5 Isomer 2, N-[(E)-N′-[(Z)-C-[6-(4-chlorophenyl)-5-phenyl-4,5-dihydro-3H-pyridazin-2-yl]-N-[(3,3-difluoro-1-piperidyl)sulfonyl]carbonimidoyl]carbamimidoyl]acetamide]
7 | < 4.52 | 6.37 | CC(=O)NC(N)=NC(=NS(=O)(=O)c1ccc(Cl)cc1)N1CCC(c2ccccc2)C(c2ccc(Cl)cc2)=N1 (single isomer, unassigned) [Compound 1 Isomer 1, N-[(E)-N′-[(Z)-C-[6-(4-chlorophenyl)-5-phenyl-4,5-dihydro-3H-pyridazin-2-yl]-N-(4-chlorophenyl)sulfonylcarbonimidoyl]carbamimidoyl]acetamide]
8 | 4.85 | 6.72 | CC(=O)N/C(N)=N/C(=N/S(=O)(=O)N1CCC(C(F)(F)F)CC1)N1CCC(c2ccccc2)C(c2ccc(Cl)cc2)=N1 (single isomer, unassigned) [Compound 3 Isomer 1, N-[(E)-N′-[(Z)-C-[6-(4-chlorophenyl)-5-phenyl-4,5-dihydro-3H-pyridazin-2-yl]-N-[[4-(trifluoromethyl)-1-piperidyl]sulfonyl]carbonimidoyl]carbamimidoyl]acetamide]
9 | 8.89 | 9.19 | CC(=O)N/C(N)=N/C(=N/S(=O)(=O)N1CCC(C(F)(F)F)CC1)N1CCC(c2ccccc2)C(c2ccc(Cl)cc2)=N1 (single isomer, unassigned) [Compound 3 Isomer 2, N-[(E)-N′-[(Z)-C-[6-(4-chlorophenyl)-5-phenyl-4,5-dihydro-3H-pyridazin-2-yl]-N-[[4-(trifluoromethyl)-1-piperidyl]sulfonyl]carbonimidoyl]carbamimidoyl]acetamide]
10 | 8.59 | 9.17 | CC(=O)NC(N)=NC(=NS(=O)(=O)c1cc(F)cc(F)c1)N1CCC(c2ccccc2)C(c2ccc(Cl)cc2)=N1 (single isomer, unassigned) [Compound 6 Isomer 2, N-[(E)-N′-[(Z)-C-[6-(4-chlorophenyl)-5-phenyl-4,5-dihydro-3H-pyridazin-2-yl]-N-(3,5-difluorophenyl)sulfonylcarbonimidoyl]carbamimidoyl]acetamide]
11 | 8.07 | 8.72 | CC(=O)NC(=N)/N=C(/NS(=O)(=O)c1ccc(C(F)(F)F)cn1)N1CCC(c2ccccc2)C(c2ccc(Cl)cc2)=N1 (single isomer, unassigned) [Compound 8 Isomer 2, N-[(NE)-N-[[6-(4-chlorophenyl)-5-phenyl-4,5-dihydro-3H-pyridazin-2-yl]-[[5-(trifluoromethyl)-2-pyridyl]sulfonylamino]methylene]carbamimidoyl]acetamide]
12 | 6.24 | 6.70 | CC(=O)N/C(N)=N\C(=N\S(=O)(=O)c1ccc(C(F)(F)F)cc1)N1CCC(c2ccccc2)C(c2ccc(Cl)cc2)=N1 (single isomer, unassigned) [Compound 7 Isomer 1, N-[(E)-N′-[(Z)-C-[6-(4-chlorophenyl)-5-phenyl-4,5-dihydro-3H-pyridazin-2-yl]-N-[4-(trifluoromethyl)phenyl]sulfonyl-carbonimidoyl]carbamimidoyl]acetamide]
13 | 4.63 | 6.52 | CC(=O)N/C(N)=N/C(=N/S(=O)(=O)N1CCCCC1)N1CCC(c2ccccc2)C(c2ccc(Cl)cc2)=N1 (single isomer, unassigned) [Compound 2 Isomer 1, N-[(E)-N′-[(Z)-C-[6-(4-chlorophenyl)-5-phenyl-4,5-dihydro-3H-pyridazin-2-yl]-N-(1-piperidylsulfonyl)carbonimidoyl]carbamimidoyl]acetamide]
14 | 8.82 | 9.19 | CC(=O)N/C(N)=N/C(=N/S(=O)(=O)N1CCCCC1)N1CCC(c2ccccc2)C(c2ccc(Cl)cc2)=N1 (single isomer, unassigned) [Compound 2 Isomer 2, N-[(E)-N′-[(Z)-C-[6-(4-chlorophenyl)-5-phenyl-4,5-dihydro-3H-pyridazin-2-yl]-N-(1-piperidylsulfonyl)carbonimidoyl]carbamimidoyl]acetamide]
15 | 6.42 | 7.41 | CC(=O)NC(N)=NC(=NS(=O)(=O)c1cc(F)cc(F)c1)N1CCC(c2ccccc2)C(c2ccc(Cl)cc2)=N1 (single isomer, unassigned) [Compound 6 Isomer 1, N-[(E)-N′-[(Z)-C-[6-(4-chlorophenyl)-5-phenyl-4,5-dihydro-3H-pyridazin-2-yl]-N-(3,5-difluorophenyl)sulfonylcarbonimidoyl]carbamimidoyl]acetamide]
16 | < 4.52 | < 4.52 | CC(=O)N/C(N)=N/C(=N/S(=O)(=O)N1CCC(F)(F)CC1)N1CCC(c2ccccc2)C(c2ccc(Cl)cc2)=N1 (single isomer, unassigned) [Compound 4 Isomer 1, N-[(E)-N′-[(Z)-C-[6-(4-chlorophenyl)-5-phenyl-4,5-dihydro-3H-pyridazin-2-yl]-N-[(4,4-difluoro-1-piperidyl)sulfonyl]carbonimidoyl]carbamimidoyl]acetamide]
